Data as given in article PMC3750051, “A New Class of Rhomboid Protease Inhibitors Discovered by Activity-Based Fluorescence Polarization” (PLoS ONE, 2013).

Tests used:
E. coli rhomboid GlpG [1] = target: T1, E. coli rhomboid GlpG (Escherichia coli, UniProt P09391); experiment: biochemical
GlpG [2] = target: T2, GlpG (Escherichia coli, UniProt P09391); experiment: Substrate cleavage of fluorescently labeled TatA (Providencia stuartii) by GlpG; format: biochemical, E. coli; conditions: 100 µM compound, 500 nM GlpG, 83 nM TAMRA-labeled TatA, overnight at 37°C
Experimental: The TatA protein from Providencia stuartii was used for generation of a fluorescence substrate. The substrate was constructed to include a His6-tag for purification as well as a LPRTG-motif for sortase-mediated protein labeling. It was expressed and purified as described above. For the labeling reaction, 33 µM of the unlabeled substrate, 50 µM sortase A from S. aureus and 500 µM of the label NH2-Ala-Ala-Ahx-Lys(TAMRA) were added together in labeling buffer (50 mM Tris, pH 7.5 containing 150 mM NaCl, 10 mM CaCl2 and 0.05% (w/v) DDM) and allowed to react o/n at 37°C in the dark. […] This allowed removal of sortase and unlabeled substrate by incubation of the labeling reaction with Ni-NTA agarose beads. The supernatant was applied to a ZEBA-spin desalting column (VWR; MW-cut-off 7 kDa) to remove excess label. 40 µL of a 500 nM rhomboid solution (in 50 mM HEPES (pH 7.4) containing 10% (v/v) glycerol and 0.0125% (w/v) DDM) were incubated for 30 min at 37°C shaking with 100 µM of the compounds or DMSO. Then fluorescently labeled rhomboid substrate TatA (Providencia stuartii) was added to a final concentration of 83 nM. The cleavage reaction was allowed to take place o/n at 37°C shaking in the dark and stopped by the addition of 4× SDS-sample buffer. 10 µl of each reaction (10 ng protein per lane) was applied to a 15% SDS-polyacrylamide gel and run for 1 h 10 min at 200V. The gel was visualized on a fluorescence scanner (Typhoon, Trio +).

GlpG [3] = target: T2, GlpG; experiment: Gel-based competitive activity-based probe profiling (competitive ABPP); format: biochemical, E. coli; conditions: for blocking of EK2 labeling of GlpG (gel-based competitive ABPP): 100 µM compound, 45 nM GlpG, 1 µM probe EK2
Experimental: For the competitive activity-based probe profiling (competitive ABPP) experiment 45 nM of rhomboid in 20 µl of 50 mM HEPES (pH 7.4) containing 10% glycerol and 0.0125% DDM were incubated for 30 min at 37°C shaking with 100 µM of the compound or an equal volume of DMSO. Then either probe EK2 or FP-R was added to a final concentration of 1 µM and incubated for further 30 min at 37°C shaking in the dark. The labeling reaction was stopped with 4× SDS-sample buffer and 10 µl of the reaction (15 ng protein per lane) was applied to a 15% SDS-polyacrylamide gel and run for 1 h 10 min at 200V. The gel was visualized on a fluorescence scanner (Typhoon, Trio +).

E. coli rhomboid GlpG [4] = target: T1, E. coli rhomboid GlpG; format: biochemical; conditions: 100 µM compound; for FluoPol signal, % of wild-type signal: 30 min preincubation, 75 nM FP-R, polarization at 4 h, GlpG WT = 100%, duplicate screens
GlpG from E. coli = GlpG from E. coli (Escherichia coli, UniProt P09391); format: biochemical; conditions: 1 µM probe, 45 nM GlpG WT or inactive S201A mutant, 30 min
bovine chymotrypsin [5] = target: T3, bovine chymotrypsin (Bos taurus, UniProt P00766); set-up: method as in PMID 23359682; conditions: cited from earlier work
bovine chymotrypsin [6] = target: T3, bovine chymotrypsin; experiment: IC50 against chymotrypsin; format: biochemical; conditions: for IC50: bovine chymotrypsin, read-out: apparent IC50 against chymotrypsin; for potency against GlpG compared with trypsin and chymotrypsin: comparison of apparent IC50 values
GlpG [7] = target: T2, GlpG; format: biochemical, E. coli; conditions: 36 nM GlpG WT or S201A mutant, 100 µM compound, click reaction with TAMRA-azide
bovine trypsin = target: T4, bovine trypsin (Bos taurus, UniProt P00760); experiment: IC50 against trypsin; format: biochemical; conditions: read-out: apparent IC50 against trypsin
T4 sequence (P00760 24-246): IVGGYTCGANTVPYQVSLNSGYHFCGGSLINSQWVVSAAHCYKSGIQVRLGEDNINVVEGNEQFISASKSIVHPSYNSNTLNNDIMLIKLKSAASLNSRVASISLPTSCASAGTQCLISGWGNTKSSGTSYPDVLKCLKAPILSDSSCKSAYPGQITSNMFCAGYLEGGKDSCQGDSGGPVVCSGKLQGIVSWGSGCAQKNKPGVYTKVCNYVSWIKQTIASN

T1 sequence (P09391 whole entry): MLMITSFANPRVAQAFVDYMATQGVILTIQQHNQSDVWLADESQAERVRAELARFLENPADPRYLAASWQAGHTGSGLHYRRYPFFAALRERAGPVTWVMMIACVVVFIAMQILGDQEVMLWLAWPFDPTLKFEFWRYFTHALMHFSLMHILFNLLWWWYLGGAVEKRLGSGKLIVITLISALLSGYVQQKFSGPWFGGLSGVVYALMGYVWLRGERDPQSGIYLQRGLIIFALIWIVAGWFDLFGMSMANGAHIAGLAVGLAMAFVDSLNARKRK
T2 sequence (P09391 whole entry): as above
Sequence of GlpG from E. coli (P09391 whole entry): as above

| Compound | IC50 (E. coli rhomboid GlpG [1]) [µM] | inhibition of substrate cleavage (GlpG [2]) | blocking of EK2 labeling of GlpG (gel-based competitive ABPP) (GlpG [3]) | other results |
| --- | --- | --- | --- | --- |
| Nc1ccc2c(Cl)c(OCCCCCc3ccccc3)oc(=O)c2c1 [Compound 2] | 0.75 ± 0.21 | able to block | able to block | – |
| CCCCOc1oc(=O)c2cc(N)ccc2c1Cl [Compound 3] | 0.4 ± 0.1 | able to block | able to block | FluoPol signal, % of wild-type signal (E. coli rhomboid GlpG [4]): slightly negative |
| O=c1oc(OCCBr)c(Cl)c2ccc([N+](=O)[O-])cc12 [Compound 12] | 8.4 ± 1.7 | able to block | able to block | FluoPol signal, % of wild-type signal (E. coli rhomboid GlpG [4]): slightly negative |
| O=c1oc(OCCCCCc2ccccc2)c(Cl)c2ccc([N+](=O)[O-])cc12 [Compound 10] | 5.2 ± 0.8 | able to block | able to block | FluoPol signal, % of wild-type signal (E. coli rhomboid GlpG [4]): slightly negative |
| vibralactone [reference compound] | – | – | – | activity against rhomboid (E. coli rhomboid GlpG [4]; FluoPol ABPP screen): inactive |
| CN(C)c1ccc2c(-c3ccc(C(=O)NCCCn4cc(CCOc5oc(=O)c6cc(N)ccc6c5Cl)nn4)cc3C(=O)[O-])c3ccc(=[N+](C)C)cc-3oc2c1 [EK2] | – | – | – | activity-based labeling of GlpG by the probe (GlpG from E. coli): labeled wild-type (WT) GlpG from E. coli, but not the inactive S201A mutant |
| CCCCOc1oc(=O)c2cc([N+](=O)[O-])ccc2c1Cl [Compound 11] | 5.5 ± 0.55 | able to block | able to block | – |
| Nc1ccc2c(Cl)c(OCCc3ccccc3)oc(=O)c2c1 [S016, reference compound] | 1.1 ± 0.56 | – | – | potency against chymotrypsin compared with GlpG (bovine chymotrypsin [5]): more potent against chymotrypsin than against GlpG; prevention of probe labeling of GlpG WT by pre-inhibition (GlpG [3]; 100 µM inhibitor, 30 min, 1 µM probe EK2 or FP-R): Labeling was also prevented |
| Nc1ccc2c(Cl)c(OCCc3cn(Cc4ccccc4)nn3)oc(=O)c2c1 [Compound 27] | 3.1 ± 0.91 | able to block | able to block | – |
| C#CCCC[C@@H]1OC(=O)[C@H]1CCCC [Compound 31] | 26 ± 5.8 | able to block | able to block | IC50 (bovine chymotrypsin [6]): > 50 µM; potency against GlpG compared with trypsin and chymotrypsin (bovine chymotrypsin [6]): higher potency against GlpG than against trypsin and chymotrypsin; tandem activity-based labeling of GlpG (fluorescent gel band) (GlpG [7]): Wild-type GlpG, but not the inactive S201A mutant was visualized; IC50 (bovine trypsin): > 150 µM |
| C#CCCCC(=O)OCC1=CC2(CC=C(C)C)C(=O)OC2C1 (stereo not shown) [Compound 43] | 44 ± 10 | able to block | able to block | IC50 (bovine chymotrypsin [6]): > 50 µM; potency against GlpG compared with trypsin and chymotrypsin (bovine chymotrypsin [6]): higher potency against GlpG than against trypsin and chymotrypsin; tandem activity-based labeling of GlpG (fluorescent gel band) (GlpG [7]): Wild-type GlpG, but not the inactive S201A mutant was visualized; IC50 (bovine trypsin): > 150 µM |
